{"source": "patent US20130210054A1", "about": "“Amino Acid Copolymer Assay” (Momenta Pharmaceuticals, Inc., priority 2012, published 2013)", "assay_type_in_all_cases": "cell-based, Balb/c mice", "key": {"[1]": {"system": "GA-specific polarized Th2 cells", "assay": "Th2 assay: cytokine secretion by GA-specific polarized Th2 cells with APCs and antigen, 9-plex MSD multiplex", "experimental": "Populations of Th2 cells and APC cells were reanimated in culture media (RPMI/5% FBS/20 ng/mL IL-2), added dropwise. Cells were pelleted at 400-800G before being resuspended in fresh culture media for use in the assay. For the assay, 150,000 APC cells were combined with a concentration of GA using serial dilution of the GA. The resulting concentration curve provided a range from 0-50 μg/mL GA. APC cells were incubated with the GA for about 10 minutes before the Th2 cells were added. The final volume for the assay was 0.2 mL. The set up for the Th2 assay is illustrated in FIG. 7.\nMore specifically, GA-specific polarized Th2 cells prepared according to Example 1 were cultured in vitro with varying concentrations of GA (reference standard commercial preparation, Copaxone® or glatiramoid (Sigma-Aldrich (COP-1)) in the presence of syngeneic, mitomycin-C-treated, naïve splenic APCs. Cells were cultured in 96-well plates in a final volume of 200 μl per well, with 50 μl of […] splenic APCs (150×10^3/50 μl) freshly isolated from naïve Balb/c mice, 50 μl of GA-specific polarized Th2 cells (50×10^3/50 μl) and 100 μl of culture media (complete RPMI-10 supplemented with 10% FBS) containing RLD or COP-1 at increasing concentrations of GA from 0 to 50 μg/ml. Conditioned culture media was collected 24 hours post stimulation for analysis by multiplex assay and ELISA. Th1 ([…], IL-2, IL-12p70, TNF-α, KC and IFN-γ) and Th2 (IL-4, IL-5, and IL-10) cytokine levels (pg/ml) were measured using the 9-plex mouse Th1/Th2 cytokine kit from Meso Scale Discovery (MSD) (Gaithersburg, Md.)."}, "CD4+ T cells": {"system": "CD4+ T cells", "assay": "Cytokine levels in culture media of CD4+ T cells from GA-immunized mice after restimulation with antigen and APCs (multiplex)", "settings": "for levels of Th2 cytokines induced: after a second round of stimulation, 20 μg antigen", "experimental": "Balb/c mice (Jackson Labs) were immunized with 250 μg/mL of GA (reference lot drug (RLD) or ovalbumin (OVA), each in saline, emulsified in complete Freund's adjuvant (CFA) on day 1. On day 11, the draining lymph nodes were harvested, single cell suspensions were made, and CD4+ T cells were enriched by negative selection immunomagnetic bead purification.\nFor ex vivo challenge, CD4+ T cells (1×10^6/ml) were re-stimulated with 20 μg/mL of the same antigen used to immunize the mice (RLD, GA, or OVA) in the presence of freshly isolated or frozen naïve mitomycin C-treated splenic APCs (1×10^7/ml) for 3-4 days, at which time, the culture media was replaced with fresh culture media supplemented with 20 ng/ml of IL-2. Cells were split and reseeded at 800,000 cells/mL in media containing 4 parts fresh media (RPMI/5% FBS/20 ng/mL IL-2) and 1 part recycled media from the previous culture. This cycle of changing the media and splitting the cells was repeated for 6 cycles. Cells were frozen and stored as a cell bank.\nAfter cell propagation, the CD4+ T cells were restimulated once again with freshly isolated naïve mitomycin C-treated splenic APCs (1×10^7/ml) for 4 days and 20 μg of the respective antigen. Culture supernatants were collected 72 hours after the start of each restimulation for analysis.\nTh1 (IL-2 and IL-12p40), Th2 (IL-4, IL-5 IL-6, IL-10, and IL-13) and Th17 (IL-17) cytokine levels (ng/ml) were measured using multiplex technology (Endogen Searchlight, Rockford, Ill.). A one-way ANOVA followed by Newman-Keuls multiple comparison test (significance level, p<0.05) for each individual measured cytokine was used for statistical analysis."}, "[2]": {"system": "GA-specific polarized Th2 cells", "assay": "GA-Th2 assay: IL-4 in culture media by ELISA", "settings": "0 to 50 μg/ml antigen, 24 hours, sandwich ELISA", "experimental": "Populations of Th2 cells and APC cells were reanimated in culture media (RPMI/5% FBS/20 ng/mL IL-2), added dropwise. Cells were pelleted at 400-800G before being resuspended in fresh culture media for use in the assay. […] The final volume for the assay was 0.2 mL. The set up for the Th2 assay is illustrated in FIG. 7.\nConditioned culture media was collected 24 hours post stimulation for analysis by multiplex assay and ELISA.\nThe response curve was fit to the four parameter logistic fit equation using nonlinear regression and the EC50 (μg/ml) was calculated. One-way ANOVA followed by Tukey's multiple comparison test (significance level, p<0.05) was used for statistical testing of the dataset for each plate.\nIL-4 levels were determined by sandwich ELISA."}}}
{"molecule": "Poly(Ala, Glu, Lys, Tyr) 6:2:5:1 hydrobromide [COP-1]", "values": [{"measurement": "Th2 cytokines (IL-4, IL-5, IL-10) secreted", "setting": "[1]; 0 to 50 μg/ml antigen, 24 hours", "value": "dose-dependent increase"}, {"measurement": "levels of IL-2 and TNF-α", "setting": "[1]; 0 to 50 μg/ml, 24 hours", "value": "quantifiable and exhibited dose dependency"}, {"measurement": "response versus RLD in secretion of the Th2 cytokines", "setting": "[1]; 0 to 50 μg/ml, 24 hours", "value": "readily distinguishable from RLD"}, {"measurement": "levels of secreted Th1 cytokines (IL-1β, KC, IFN-γ)", "setting": "[1]; 0 to 50 μg/ml, 24 hours, not dose dependent", "value": "very low (below limits of quantitation)"}, {"measurement": "IL-12 secretion", "setting": "[1]; 0 to 50 μg/ml, 24 hours, quantitated", "value": "not dose dependent"}, {"measurement": "doses at which discriminated from RLD in levels of IL-2 and TNF-α secreted", "setting": "[1]; 24 hours", "value": "> 30", "unit": "µg/mL"}, {"measurement": "levels of Th2 cytokines (IL-4, IL-5, IL-10, IL-13), IL-2, IL-6 and TNF-α compared to restimulation with GA", "setting": "[1]; restimulated in the presence of APCs", "value": "significantly decreased levels"}]}
{"molecule": "L-glutamic acid polymer with L-alanine, L-lysine and L-tyrosine, acetate (salt) [GA]", "values": [{"measurement": "levels of Th2 cytokines induced", "setting": "CD4+ T cells; supernatant 72 hours", "value": "high levels"}, {"measurement": "levels of Th2 cytokines (IL-5, IL-6, IL-10, IL-13) induced", "setting": "CD4+ T cells; after the first round of stimulation, 20 μg/mL antigen, supernatant 72 hours", "value": "low but detectable levels"}, {"measurement": "Th17 cytokine IL-17 and Th1 cytokine IL-12p40", "setting": "CD4+ T cells; with the second round of stimulation", "value": "selectively down-regulated"}]}
{"molecule": "MBP (87-89): myelin basic protein peptide, Peptides International Catalog No. PMB-3973-PI (NRPHLIRLFSRDA; UniProt P04370 87-99, looked up, fragment)", "values": [{"measurement": "IL-4 in the culture media (cross-reactivity)", "setting": "[2]", "value": "no IL-4 was detected"}]}
{"molecule": "PLP (139-151): encephalitogenic neuroantigen peptide, Peptides International (CHCLGKWLGHPDK; UniProt P60202 139-151, looked up, fragment)", "values": [{"measurement": "IL-4 in the culture media (cross-reactivity)", "setting": "[2]", "value": "no IL-4 was detected"}]}
{"molecule": "MOG (35-55): encephalitogenic neuroantigen peptide, Peptides International (MEVGWYRSPFSRVVHLYRNGK; UniProt Q61885 63-83, looked up, fragment)", "values": [{"measurement": "IL-4 in the culture media (cross-reactivity)", "setting": "[2]", "value": "no IL-4 was detected"}]}
{"molecule": "murine MBP: murine myelin basic protein, EMD Biosciences Catalog No. 124027 (protein, UniProt P04370 1-250, looked up) Myelin basic protein: MGNHSGKRELSAEKASKDGEIHRGEAGKKRSVGKLSQTASEDSDVFGEADAIQNNGTSAEDTAVTDSKHTADPKNNWQGAHPADPGNRPHLIRLFSRDAPGREDNTFKDRPSESDELQTIQEDPTAASGGLDVMASQKRPSQRSKYLATASTMDHARHGFLPRHRDTGILDSIGRFFSGDRGAPKRGSGKDSHTRTTHYGSLPQKSQHGRTQDENPVVHFFKNIVTPRTPPPSQGKGGRDSRSGSPMARR", "values": [{"measurement": "IL-4 in the culture media (cross-reactivity)", "setting": "[2]", "value": "no IL-4 was detected"}]}
{"molecule": "ovalbumin: ovalbumin control antigen (protein, UniProt P01012 2-386, looked up) Ovalbumin: GSIGAASMEFCFDVFKELKVHHANENIFYCPIAIMSALAMVYLGAKDSTRTQINKVVRFDKLPGFGDSIEAQCGTSVNVHSSLRDILNQITKPNDVYSFSLASRLYAEERYPILPEYLQCVKELYRGGLEPINFQTAADQARELINSWVESQTNGIIRNVLQPSSVDSQTAMVLVNAIVFKGLWEKAFKDEDTQAMPFRVTEQESKPVQMMYQIGLFRVASMASEKMKILELPFASGTMSMLVLLPDEVSGLEQLESIINFEKLTEWTSSNVMEERKIKVYLPRMKMEEKYNLTSVLMAMGITDVFSSSANLSGISSAESLKISQAVHAAHAEINEAGREVVGSAEAGVDAASVSEEFRADHPFLFCIKHIATNAVLFFGRCVSP", "values": [{"measurement": "levels of Th2 cytokines induced", "setting": "CD4+ T cells; supernatant 72 hours", "value": "did not show a corresponding increase"}]}
